According to ChEMBL document CHEMBL1144614, “Darpones and water-soluble aminobutoxylated darpone derivatives are distinguished by matrix COMPARE analysis” (Bioorg Med Chem Lett, 2007):

What was measured:
[1] = Solubility in phosphate buffer at pH 4.5; format: physicochemical
HCT-15 = assay: Growth inhibition of HCT15 cells; format: functional; details: Homo sapiens

SMILES | solubility [1] [µg/mL] | GI50 (HCT-15) [µM]
Cl.O=C1Cc2c(-c3ccccc3)cc(-c3ccc(OCCCCN4CCOCC4)c(Cl)c3)nc2-c2ccccc2N1 | 5 | 2.3
COc1ccc2c(c1)NC(=O)Cc1c(-c3ccccc3)cc(-c3cccc(Cl)c3)nc1-2 |  | > 100
COc1ccc(-c2cc(-c3cccc(Cl)c3)nc3c2CC(=O)Nc2ccccc2-3)cc1 |  | 1.9
Cl.NCCCCOc1ccc(-c2cc(-c3ccccc3)c3c(n2)-c2ccccc2NC(=O)C3)cc1Cl | < 5 | 13.8
Cl.NCCCCOc1ccc(-c2cc(-c3cccc(Cl)c3)nc3c2CC(=O)Nc2ccccc2-3)cc1 | < 5 | 6.6
O=C1Cc2c(-c3ccccc3)cc(-c3cccc(Cl)c3)nc2-c2ccccc2N1 |  | 2.7
COc1ccc(-c2cc(-c3ccccc3)c3c(n2)-c2ccccc2NC(=O)C3)cc1Cl |  | 3

Results, then the compound that gave them:

solubility [1] [µg/mL] | GI50 (HCT-15) [µM] | SMILES
< 5 | 0.87 | CN1CCN(CCCCOc2ccc(-c3cc(-c4ccccc4)c4c(n3)-c3ccccc3NC(=O)C4)cc2Cl)CC1.Cl.Cl
> 500 | 1.6 | Cl.O=C1Cc2c(-c3ccccc3)cc(-c3cccc(Cl)c3)nc2-c2ccc(OCCCCN3CCOCC3)cc2N1
> 500 | 1.2 | Cl.O=C1Cc2c(-c3ccc(OCCCCN4CCOCC4)cc3)cc(-c3cccc(Cl)c3)nc2-c2ccccc2N1
< 5 | 1.8 | Cl.NCCCCOc1ccc2c(c1)NC(=O)Cc1c(-c3ccccc3)cc(-c3cccc(Cl)c3)nc1-2
> 500 | 0.91 | CN1CCN(CCCCOc2ccc(-c3cc(-c4cccc(Cl)c4)nc4c3CC(=O)Nc3ccccc3-4)cc2)CC1.Cl.Cl
> 500 | 0.81 | CN1CCN(CCCCOc2ccc3c(c2)NC(=O)Cc2c(-c4ccccc4)cc(-c4cccc(Cl)c4)nc2-3)CC1.Cl.Cl
